We go through 57 compounds from patent US11198695B2, “Fused ring derivative having MGAT-2 inhibitory activity” (Shionogi & Co., Ltd., priority 2017, dated 2021).

The target of the assay is recombinant human MGAT2 (Homo sapiens (Human), UniProt Q3SYC2). In words: Measurement of human MGAT2 inhibitory activity. It is filed as biochemical. Particulars: read-out: IC50 (concentration exhibiting 50% enzyme inhibition), Table 52. The method in brief: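 Membrane fraction of Sf9 cells expressing N-terminally Flag-tagged full-length human MGAT2, incubated 1 h at room temperature in 100 mmol/L phosphate pH 7.4 with 2 mmol/L DTT. The substrate solution held 30 μmol/L 2-oleoylglycerol and 10 μmol/L oleoyl-CoA. Diolein product was quantified by RapidFire ESI Q-TOF MS against diolein-d5 internal standard; % inhibition was set relative to with/without-enzyme controls.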
Sequence of recombinant human MGAT2 (Q3SYC2 whole entry): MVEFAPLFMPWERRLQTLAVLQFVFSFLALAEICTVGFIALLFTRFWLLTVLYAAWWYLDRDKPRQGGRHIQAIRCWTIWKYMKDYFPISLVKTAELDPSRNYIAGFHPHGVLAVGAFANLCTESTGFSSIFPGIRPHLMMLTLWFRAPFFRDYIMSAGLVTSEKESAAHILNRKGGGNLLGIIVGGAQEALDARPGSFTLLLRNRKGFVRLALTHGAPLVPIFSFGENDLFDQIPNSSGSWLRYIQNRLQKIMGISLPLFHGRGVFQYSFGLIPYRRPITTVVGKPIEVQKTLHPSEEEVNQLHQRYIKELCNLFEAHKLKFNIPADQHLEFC
For the compound `O=C(Nc1c2c(nn1CCC1CC1)C[C@]1(CCc3cc(OCC(F)(F)F)ccc31)NC2=O)c1cncnc1` [Compound I-216], the IC50 was 35 nM.
With `O=C(Nc1c2c(nn1CCC1CC1)C[C@]1(CCc3cc(OCC(F)(F)F)ccc31)NC2=O)c1cnccn1` [Compound I-217] the figure was 89.5 nM.
Consider `O=C(Nc1c2c(nn1CCC1CC1)C[C@]1(CCc3cc(OCC(F)(F)F)ccc31)NC2=O)c1ccoc1` [Compound I-218], for which the IC50 was found to be 48 nM.
Next, `O=C(Nc1c2c(nn1CCC1CC1)C[C@]1(CCc3cc(OCC(F)(F)F)ccc31)NC2=O)c1csnn1` [Compound I-219]: 110 nM; `O=C(Nc1c2c(nn1CCC1CC1)C[C@]1(CCc3cc(OCC(F)(F)F)ccc31)NC2=O)c1ccco1` [Compound I-220]: 35 nM.
In the case of `Cc1nnsc1C(=O)Nc1c2c(nn1CCC1CC1)C[C@]1(CCc3cc(OCC(F)(F)F)ccc31)NC2=O` [Compound I-221], the IC50 is 60 nM.
Next, `O=C(Nc1c2c(nn1CCC1CC1)C[C@]1(CCc3cc(OCC(F)(F)F)ccc31)NC2=O)c1cscn1` [Compound I-222]: 88 nM; `Cn1nccc1C(=O)Nc1c2c(nn1CCC1CC1)C[C@]1(CCc3cc(OCC(F)(F)F)ccc31)NC2=O` [Compound I-223]: 140 nM; `Cc1oncc1C(=O)Nc1c2c(nn1CCC1CC1)C[C@]1(CCc3cc(OCC(F)(F)F)ccc31)NC2=O` [Compound I-224]: 310 nM.
For the compound `O=C(Nc1c2c(nn1CCC1CC1)C[C@]1(CCc3cc(OCC(F)(F)F)ccc31)NC2=O)c1ncco1` [Compound I-225], the IC50 came to 40 nM.
For `Cc1cnoc1C(=O)Nc1c2c(nn1CCC1CC1)C[C@]1(CCc3cc(OCC(F)(F)F)ccc31)NC2=O` [Compound I-226], the IC50 came out at 90 nM.
With `Cc1cc(C(=O)Nc2c3c(nn2CCC2CC2)C[C@]2(CCc4cc(OCC(F)(F)F)ccc42)NC3=O)ns1` [Compound I-227] the figure was 370 nM.
With `O=C(Nc1c2c(nn1CCC1CC1)C[C@]1(CCc3cc(OCC(F)(F)F)ccc31)NC2=O)c1cncs1` [Compound I-228] the figure was 28 nM; with `Cc1cc(C(=O)Nc2c3c(nn2CCC2CC2)C[C@]2(CCc4cc(OCC(F)(F)F)ccc42)NC3=O)n(C)n1` [Compound I-229], 620 nM; with `Cc1ncc(C(=O)Nc2c3c(nn2CCC2CC2)C[C@]2(CCc4cc(OCC(F)(F)F)ccc42)NC3=O)s1` [Compound I-230], 210 nM.
With `O=C(Nc1c2c(nn1CCC1CC1)C[C@]1(CCc3cc(OCC(F)(F)F)ccc31)NC2=O)c1cocn1` [Compound I-231] the figure was 47.5 nM.
For the compound `Cn1ccc(C(=O)Nc2c3c(nn2CCC2CC2)C[C@]2(CCc4cc(OCC(F)(F)F)ccc42)NC3=O)n1` [Compound I-232], the IC50 was found to be 270 nM.
Take `C=C(C)c1ccc(-n2nc3c(c2NC(=O)CS(C)(=O)=O)C(=O)N[C@@]2(CCc4cc(OCC(F)(F)F)ccc42)C3)nc1` [Compound I-233]: the IC50 is 11 nM.
On to `CS(=O)(=O)CC(=O)Nc1c2c(nn1CCC1CC1)C[C@]1(CCc3cc(N4CC(C(F)(F)F)C4)ccc31)NC2=O` [Compound I-234], for which the IC50 came out at 9.8 nM.
With `CS(=O)(=O)CC(=O)Nc1c2c(nn1CCC1CC1)C[C@]1(CCc3cc(N4CCC4)ccc31)NC2=O` [Compound I-235] the figure was 85 nM; with `CC(C)(O)c1ccc(-n2nc3c(c2NC(=O)CS(C)(=O)=O)C(=O)N[C@@]2(CCc4cc(OCC(F)(F)F)ccc42)C3)nc1` [Compound I-237], 16 nM.
Regarding `CC(C)c1ccc(-n2nc3c(c2NC(=O)CS(C)(=O)=O)C(=O)N[C@@]2(CCc4cc(OCC(F)(F)F)ccc42)C3)nc1` [Compound I-238], the IC50 stood at 10 nM.
Turning to `CCCc1cccc(-n2nc3c(c2NC(=O)CS(C)(=O)=O)C(=O)N[C@@]2(CCc4cc(OCC(F)(F)F)ccc42)C3)c1` [Compound I-239], the IC50 came out at 380 nM.
On to `CC(C)(O)c1cccc(-n2nc3c(c2NC(=O)CS(C)(=O)=O)C(=O)N[C@@]2(CCc4cc(OCC(F)(F)F)ccc42)C3)c1` [Compound I-240], for which the IC50 came out at 1000 nM.
Regarding `O=C(NCc1c2c(nn1CCC1CC1)C[C@]1(CCc3cc(OCC(F)(F)F)ccc31)NC2=O)c1ccc(O)cc1` [Compound I-241], the IC50 came to 380 nM.
Consider `CS(=O)(=O)CC(=O)Nc1c2c(nn1-c1ccc(C#N)cn1)C[C@@]1(CCc3cc(C4CC4)ccc31)NC2=O` [Compound I-242], for which the IC50 came to 3.6 nM.
For the compound `CS(=O)(=O)CC(=O)Nc1c2c(nn1-c1ccc(C#N)cn1)C[C@]1(CCOc3cc(OCC(F)(F)F)ccc31)NC2=O` [Compound I-243], the IC50 worked out at 3.5 nM.
Next, `COc1cccc(-n2nc3c(c2NC(=O)CS(C)(=O)=O)C(=O)N[C@@]2(CCc4cc(OCC(F)(F)F)ccc42)C3)c1` [Compound I-244]: 110 nM; `CS(=O)(=O)CC(=O)Nc1c2c(nn1-c1cccc(C#N)c1)C[C@]1(CCc3cc(OCC(F)(F)F)ccc31)NC2=O` [Compound I-245]: 530 nM.
Next, `CS(=O)(=O)CC(=O)Nc1c2c(nn1-c1ccc3c(c1)CCC3)C[C@]1(CCc3cc(OCC(F)(F)F)ccc31)NC2=O` [Compound I-246]: 24 nM; `CS(=O)(=O)CC(=O)Nc1c2c(nn1-c1ccc3c(c1)OC(F)(F)O3)C[C@]1(CCc3cc(OCC(F)(F)F)ccc31)NC2=O` [Compound I-247]: 84 nM; `CS(=O)(=O)CC(=O)Nc1c2c(nn1-c1cccc(C3CC3)c1)C[C@]1(CCc3cc(OCC(F)(F)F)ccc31)NC2=O` [Compound I-248]: 240 nM.
Turning to `CS(=O)(=O)CC(=O)Nc1c2c(nn1CCC1CC1)C[C@@]1(CCc3cc(OCC(F)(F)F)cc(F)c31)NC2=O` [Compound I-249], the IC50 was 3.5 nM.
Consider `CCOCCn1nc2c(c1NC(=O)CS(C)(=O)=O)C(=O)N[C@@]1(CCc3cc(OCC(F)(F)F)ccc31)C2` [Compound I-250], for which the IC50 amounted to 150 nM.
For the compound `COCCCCn1nc2c(c1NC(=O)CS(C)(=O)=O)C(=O)N[C@@]1(CCc3cc(OCC(F)(F)F)ccc31)C2` [Compound I-251], the IC50 worked out at 490 nM.
For the compound `COCCCn1nc2c(c1NC(=O)CS(C)(=O)=O)C(=O)N[C@@]1(CCc3cc(OCC(F)(F)F)ccc31)C2` [Compound I-252], the IC50 stood at 13 nM.
On to `CS(=O)(=O)CC(=O)Nc1c2c(nn1CCCC#N)C[C@]1(CCc3cc(OCC(F)(F)F)ccc31)NC2=O` [Compound I-254], for which the IC50 amounted to 95 nM.
As to `CS(=O)(=O)CC(=O)Nc1c2c(nn1CCCCC(F)(F)F)C[C@]1(CCc3cc(OCC(F)(F)F)ccc31)NC2=O` [Compound I-255], the IC50 was 17 nM.
Turning to `CS(=O)(=O)CC(=O)Nc1c2c(nn1CCC(F)(F)F)C[C@]1(CCc3cc(OCC(F)(F)F)ccc31)NC2=O` [Compound I-256], the IC50 was found to be 160 nM.
With `CS(=O)(=O)CC(=O)Nc1c2c(nn1CC1CCCO1)C[C@]1(CCc3cc(OCC(F)(F)F)ccc31)NC2=O` (stereo partly drawn) [Compound I-257], the IC50 turned out to be 80 nM.
Take `CS(=O)(=O)CC(=O)Nc1c2c(nn1CCC1CCOCC1)C[C@]1(CCc3cc(OCC(F)(F)F)ccc31)NC2=O` [Compound I-258]: the IC50 was 120 nM.
For `CC1(C)CCC(Cn2nc3c(c2NC(=O)CS(C)(=O)=O)C(=O)N[C@@]2(CCc4cc(OCC(F)(F)F)ccc42)C3)O1` (stereo partly drawn) [Compound I-259], the IC50 amounted to 59 nM.
For `CS(=O)(=O)CC(=O)Nc1c2c(nn1Cc1ccon1)C[C@]1(CCc3cc(OCC(F)(F)F)ccc31)NC2=O` [Compound I-260], the IC50 is 490 nM.
For the compound `CS(=O)(=O)CC(=O)Nc1c2c(nn1CCc1ccc(F)cc1)C[C@]1(CCc3cc(OCC(F)(F)F)ccc31)NC2=O` [Compound I-261], the IC50 was 16 nM.
`COc1ccc(-n2nc3c(c2NC(=O)CS(C)(=O)=O)C(=O)N[C@@]2(CCc4cc(OCC(F)(F)F)ccc42)C3)nc1` [Compound I-262]: the IC50 was determined as 34 nM.
In the case of `Cc1ccc(-n2nc3c(c2NC(=O)CS(C)(=O)=O)C(=O)N[C@@]2(CCc4cc(OCC(F)(F)F)ccc42)C3)nn1` [Compound I-263], the IC50 is 4.7 nM.
In the case of `Cc1cnc(-n2nc3c(c2NC(=O)CS(C)(=O)=O)C(=O)N[C@@]2(CCc4cc(OCC(F)(F)F)ccc42)C3)cn1` [Compound I-264], the IC50 amounted to 86 nM.
Consider `CS(=O)(=O)CC(=O)Nc1c2c(nn1-c1cccnn1)C[C@]1(CCc3cc(OCC(F)(F)F)ccc31)NC2=O` [Compound I-265], for which the IC50 was found to be 36 nM.
Turning to `Cc1ccc(-n2nc3c(c2NC(=O)CS(C)(=O)=O)C(=O)N[C@]2(CCc4cc(OCC(F)(F)F)ccc42)C3)cc1` [Compound I-266], the IC50 is 4.6 nM.
Take `Cc1cccc(-n2nc3c(c2NC(=O)CS(C)(=O)=O)C(=O)N[C@]2(CCc4cc(OCC(F)(F)F)ccc42)C3)c1` [Compound I-267]: the IC50 is 9.8 nM.
For the compound `CS(=O)(=O)CC(=O)Nc1c2c(nn1-c1ccc(F)cc1)C[C@@]1(CCc3cc(OCC(F)(F)F)ccc31)NC2=O` [Compound I-269], the IC50 was 5.5 nM.
Next, `Cc1ccc(-n2nc3c(c2NC(=O)CS(C)(=O)=O)C(=O)N[C@]2(CCc4cc(OCC(F)(F)F)ccc42)C3)nc1` [Compound I-270]: 2.8 nM; `CS(=O)(=O)CC(=O)Nc1c2c(nn1-c1cnccn1)C[C@@]1(CCc3cc(OCC(F)(F)F)ccc31)NC2=O` [Compound I-271]: 780 nM.
As to `CS(=O)(=O)CC(=O)Nc1c2c(nn1-c1ccncn1)C[C@@]1(CCc3cc(OCC(F)(F)F)ccc31)NC2=O` [Compound I-272], the IC50 was 20 nM.
Regarding `CS(=O)(=O)CC(=O)Nc1c2c(nn1C1CCCCC1)C[C@@]1(CCc3cc(OCC(F)(F)F)ccc31)NC2=O` [Compound I-273], the IC50 stood at 20 nM.
Consider `Cc1ccc(-n2nc3c(c2NC(=O)CS(C)(=O)=O)C(=O)N[C@@]2(CCOc4cc(OCC(F)(F)F)ccc42)C3)cc1` [Compound I-274], for which the IC50 was determined as 3.9 nM.
For the compound `O=C1N[C@@]2(CCc3cc(OCC(F)(F)F)cc(F)c32)Cc2nn(CCC3CC3)c(-c3nnn[nH]3)c21` [Compound I-278], the IC50 is 29 nM.
